Reference: publication PMC3582829 (European journal of medicinal chemistry, 2012)
Like-named read-outs stand apart in the source and are kept apart here.

Columns and labels:
[1] = target: TcFPPS (Trypanosoma cruzi, UniProt Q8WS26); type: biochemical
[2] = tested on: T. cruzi amastigotes; assay: T. cruzi amastigote assay in Vero cells; type: cell-based, Trypanosoma cruzi; conditions: intracellular T. cruzi
[3] = tested on: T. cruzi amastigotes; conditions: positive control; cited from earlier work
[4] = tested on: T. gondii tachyzoites; conditions: positive control, cited from earlier work

Row | SMILES | activity towards TcFPPS (in words) [1] | activity against T. cruzi amastigotes (in words) [2] | ED50 T. cruzi amastigotes [3] | ED50 T. gondii ([4]; listed as risedronate) [µM] | ED50 T. gondii [4]
1 | CCCCCCCSCC(P(=O)(O)O)P(=O)(O)O [Compound 36, 1-[(n-Heptylthio)ethyl]-1,1-bisphosphonic Acid] | devoid of anti-T. cruzi activity | devoid of anti-T. cruzi activity |  |  | 
2 | CCCCCCCNCC(O)(P(=O)(O)O)P(=O)(O)O [Compound 21, 1-[(n-Heptylamino)ethyl]-1-hydroxy-1,1-bisphosphonic Acid] | almost devoid of antiparasitic activity | almost devoid of antiparasitic activity |  |  | 
3 | CCCCCC(C)NCC(P(=O)(O)O)P(=O)(O)O (stereo not drawn) [Compound 18, 1-[(n-Hept-2-ylamino)ethyl] 1,1-bisphosphonic Acid] | almost devoid of antiparasitic activity | almost devoid of antiparasitic activity |  |  | 
4 | O=P(O)(O)C(O)(Cc1cccnc1)P(=O)(O)O [Risedronate, risedronate] |  |  | 55.0 ± 5.0 [68] μM | 2.4 | 2.4 ± 0.7 [29] μM
